Test results reported in PMC6152667, “Synthesis and Evaluation of Antimicrobial Activity of [R4W4K]-Levofloxacin and [R4W4K]-Levofloxacin-Q Conjugates” (Molecules : A Journal of Synthetic Chemistry and Natural …, 2017).
≈ marks a conversion by molar mass, not a printed value. Where two headings read alike, the source gives them in different places. Side chains are listed from the residue outwards. Peptide text beside a SMILES is read from it. * marks the point of attachment. Levofloxacinoyl = C[C@H]1COc2c(N3CCN(C)CC3)c(F)cc3c(=O)c(C(=O)*)cn1c23; X1 = C[C@H]1COc2c(F)c(F)cc3c(=O)c(C(=O)*)cn1c23; βAla = NCCC(=O)O

Legend:
[1] = tested on: Methicillin-resistant Staphylococcus aureus (MRSA); design: method as in PMID 25157458; conditions: previously reported; cited from earlier work
Source text: The development of a new class of antibiotics to fight bacterial resistance is a time-consuming effort associated with high-cost and commercial risks. Thus, modification, conjugation or combination of existing antibiotics to enhance their efficacy is a suitable strategy. […] Herein, we hypothesized that conjugation or combination of the amphiphilic cyclic peptide [R4W4] with levoflox ... || Antimicrobial peptides (AMPs) are vital parts of the innate immune system, which usually act at the level of the plasma membrane of the bacterial cell. AMPs have a unique mode of action, which is mostly related to their cationic and amphipathic properties, making them capable of interacting with microbial membranes. Accordingly, AMPs have attracted increasing attention as potential candidates against resistant bacteria. […] T ...

Escherichia coli = tested on: Escherichia coli; design: method as in PMID 25157458; conditions: previously reported; cited from earlier work
[2] = tested on: Klebsiella pneumoniae (Clinical strain (levofloxacin-susceptible)); test: microbe, parasite or virus in culture; format: cell-based; conditions: for MIC: Klebsiella pneumoniae
Description: (§1) The antibacterial activities of synthesized peptides were evaluated against two bacterial strains and compared to a control antibiotic and [R4W4]. Gram-negative bacteria: Klebsiella pneumoniae (Clinical strain (levofloxacin-susceptible)) and the Gram-positive bacteria: Methicillin-Resistant Staphylococcus aureus (Los Angeles County (LAC) clone) were employed for the determination of antimicrobial activities of peptides. MRSA and Klebsiella pneumoniae were inoculated into 5 mL of Mueller Hinton […] (MH) at 37 °C and shaken in an orbital shaker at 175 rpm overnight. The cultured suspension was diluted in 5 mL normal saline until it achieved 0.5 McFarland (1.5 × 10^8 bacterial cell density) turbidity. An amount of 40 μL of the McFarland solution was added to […] of MH media to make 1/150 dilution. Most peptides were dissolved in distilled water (except some of them that were dissolved in 50 mM NH4HCO3 to improve the solubility) to make 256 μg/mL solutions. Minimal inhibitory concentrations (MICs) were determined using the broth microdilution method. Briefly, 200 μL of all tested peptides and controls was added in the first column of the 96-well plate. Then, by adding 100 μL of media to the other wells and performing a 2-fold dilution in each well, serial dilution of the compound was prepared. After a series of 2-fold dilutions, 100 μL of bacterial solution was added to all wells, and then the microliter plates were incubated statically at 37 °C overnight. MICs were determined as the minimal concentration at which no visible bacterial growth was present. All experiments were conducted in triplicate.

[3] = tested on: Methicillin-Resistant Staphylococcus aureus (Los Angeles County (LAC) clone); test: microbe, parasite or virus in culture; format: cell-based; conditions: for MIC: Staphylococcus aureus, MRSA, read-out: MIC, Methicillin-Resistant Staphylococcus aureus (MRSA)
Description: as §1

[4] = broth microdilution, Mueller Hinton media, 2-fold dilutions, 37 °C overnight, no visible growth, triplicate, N/A = not active
[5] = broth microdilution, Mueller Hinton media, 2-fold dilutions, 37 °C overnight, no visible growth, triplicate, N/A = not active, listed as levofloxacin-Q
[6] = Clinical strain (levofloxacin-susceptible)

CN(C)[C@@H]1C(O)=C(C(N)=O)C(=O)[C@@]2(O)C(O)=C3C(=O)c4c(O)cccc4[C@@](C)(O)[C@H]3C[C@@H]12 [tetracycline]
MIC against MRSA [1]: 0.5 µg/mL
MIC against Escherichia coli (Escherichia coli): 2 µg/mL (≈ 4.5 µM)

C[C@H]1COc2c(F)c(F)cc3c(=O)c(C(=O)O)cn1c23 [Levofloxacin-Q (2), Levofloxacin-Q acid]
MIC, Klebsiella pneumoniae [2, 4]: >128 µg/mL
MIC, Klebsiella pneumoniae [2, 5]: > 128 µg/mL
MIC, Methicillin-Resistant Staphylococcus aureus (MRSA) [3, 4]: >128 µg/mL
MIC, Methicillin-Resistant Staphylococcus aureus (MRSA) [3, 5]: > 128 µg/mL

C[C@@H](O)[C@H]1C(=O)N2C(C(=O)O)=C(S[C@@H]3CN[C@H](C(=O)N(C)C)C3)[C@H](C)[C@H]12 [Meropenem]
MIC [2, 4]: 1 µg/mL (≈ 2.61 µM)

N=C(N)NCCC[C@@H]1NC(=O)[C@H](CCCNC(=N)N)NC(=O)[C@H](CCCNC(=N)N)NC(=O)[C@H](Cc2c[nH]c3ccccc23)NC(=O)[C@H](Cc2c[nH]c3ccccc23)NC(=O)[C@H](Cc2c[nH]c3ccccc23)NC(=O)[C@H](Cc2c[nH]c3ccccc23)NC(=O)[C@H](CCCNC(=N)N)NC1=O [[R4W4] (3)] (cyclo(RRRRWWWW))
MIC, Klebsiella pneumoniae [2, 6]: 16 µg/mL (≈ 11.7 µM)
MIC, Methicillin-Resistant Staphylococcus aureus (MRSA) ([3]; Methicillin-Resistant (Los Angeles County (LAC) clone)): 4 µg/mL (≈ 2.92 µM)
MIC against MRSA [1]: 2.97 µg/mL

CN[C@H](CC(C)C)C(=O)N[C@H]1C(=O)N[C@@H](CC(N)=O)C(=O)N[C@H]2C(=O)N[C@H]3C(=O)N[C@H](C(=O)N[C@H](C(=O)O)c4cc(O)cc(O)c4-c4cc3ccc4O)[C@H](O)c3ccc(c(Cl)c3)Oc3cc2cc(c3O[C@@H]2O[C@H](CO)[C@@H](O)[C@H](O)[C@H]2O[C@H]2C[C@](C)(N)[C@H](O)[C@H](C)O2)Oc2ccc(cc2Cl)[C@H]1O [Vancomycin]
MIC [3]: 1 µg/mL (≈ 0.69 µM)

C[C@H]1COc2c(F)c(F)cc3c(=O)c(C(=O)NCCC(=O)NCCCC[C@@H]4NC(=O)[C@H](Cc5c[nH]c6ccccc56)NC(=O)[C@H](Cc5c[nH]c6ccccc56)NC(=O)[C@H](Cc5c[nH]c6ccccc56)NC(=O)[C@H](Cc5c[nH]c6ccccc56)NC(=O)[C@H](CCCNC(=N)N)NC(=O)[C@H](CCCNC(=N)N)NC(=O)[C@H](CCCNC(=N)N)NC(=O)[C@H](CCCNC(=N)N)NC4=O)cn1c23 (cyclo(K([βAla-X1])RRRRWWWW))
MIC, Klebsiella pneumoniae [2, 4]: 32 µg/mL (≈ 17.5 µM)
MIC, Methicillin-Resistant Staphylococcus aureus (MRSA) [3, 4]: 8 µg/mL (≈ 4.37 µM)

C[C@H]1COc2c(N3CCN(C)CC3)c(F)cc3c(=O)c(C(=O)O)cn1c23 [Levofloxacin (1), Levofloxacin]
MIC [2, 4]: 4 µg/mL (≈ 11.1 µM)
MIC, Klebsiella pneumoniae [2, 4]: 4 µg/mL (≈ 11.1 µM)
MIC [3, 4]: 2 µg/mL (≈ 5.53 µM)
MIC, Methicillin-Resistant Staphylococcus aureus (MRSA) [3, 4]: 2 µg/mL (≈ 5.53 µM)

C[C@H]1COc2c(N3CCN(C)CC3)c(F)cc3c(=O)c(C(=O)NCCC(=O)NCCCC[C@H](N)C(=O)N[C@@H](CCCNC(=N)N)C(=O)N[C@@H](CCCNC(=N)N)C(=O)N[C@@H](CCCNC(=N)N)C(=O)N[C@@H](CCCNC(=N)N)C(=O)N[C@@H](Cc4c[nH]c5ccccc45)C(=O)N[C@@H](Cc4c[nH]c5ccccc45)C(=O)N[C@@H](Cc4c[nH]c5ccccc45)C(=O)N[C@@H](Cc4c[nH]c5ccccc45)C(=O)O)cn1c23 [Conjugate linear (R4W4)-levofloxacin (6)] (H-K([βAla-Levofloxacinoyl])RRRRWWWW-OH)
MIC, Klebsiella pneumoniae [2, 6]: >128 µg/mL
MIC, Methicillin-Resistant Staphylococcus aureus (MRSA) [3, 4]: 64 µg/mL (≈ 33.2 µM)

C[C@H]1COc2c(N3CCN(C)CC3)c(F)cc3c(=O)c(C(=O)NCCC(=O)NCCCC[C@@H]4NC(=O)[C@H](Cc5c[nH]c6ccccc56)NC(=O)[C@H](Cc5c[nH]c6ccccc56)NC(=O)[C@H](Cc5c[nH]c6ccccc56)NC(=O)[C@H](Cc5c[nH]c6ccccc56)NC(=O)[C@H](CCCNC(=N)N)NC(=O)[C@H](CCCNC(=N)N)NC(=O)[C@H](CCCNC(=N)N)NC(=O)[C@H](CCCNC(=N)N)NC4=O)cn1c23 [Conjugate cyclic [R4W4]-levofloxacin (8)] (cyclo(K([βAla-Levofloxacinoyl])RRRRWWWW))
MIC, Methicillin-Resistant Staphylococcus aureus (MRSA) [3, 4]: 32 µg/mL (≈ 16.7 µM)
